Results on 18 compounds are retold here after patent publication US12421211B2, “Heterocyclic compounds” (Hoffmann-La Roche Inc., priority 2021, dated 2025).

The structures appear in SMILES notation. Where a name gives a salt, the structure may show the parent alone.

For one test, the system named is Acinetobacter baumannii ATCC17961. Put plainly: Antimicrobial susceptibility testing: 90% growth inhibitory concentration (IC90) determination. To be noted: Acinetobacter baumannii, ATCC17961, 16 h, 90% growth inhibitory concentration, Acinetobacter baumannii ATCC17961, Iso-Sensitest broth, OD 600 nm over 16 h; read-out: ATCC 17961 IC90. The class given is cell-based. The method in brief: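 A. baumannii ATCC17961 at ~5×10^5 CFU/ml in Iso-Sensitest broth exposed to 10-point twofold dilutions (e.g. 50–0.097 μM final), 35±2° C. OD600 read every 20 minutes over 16h; IC50 and IC90 derived from inhibition during logarithmic growth.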
On to `COCCn1ncc(-c2ccc(-c3cnc(C(=O)Nc4ccc(C(=O)N5CCN(C(=O)[C@H]6CC[N@+](CC(=O)O)(CC7CNC7)CC6)CC5)c(Cl)c4)n3C)c(C)c2F)c1C` [Example O4, cis 2-[1-(azetidin-3-ylmethyl)-4-[4-[2-chloro-4-[[5-[3-fluoro-4-[1-(2-methoxyethyl)-5-methyl-pyrazol-4-yl]-2-methyl-phenyl]-1-methyl-imidazole-2-carbonyl]amino]benzoyl]piperazine-1-carbonyl]piperidin-1-ium-1-yl]acetic acid formate], for which the IC90 (as a rule, the concentration needed for an effect of 90%) came out at 118 nM.
On to `Cn1c(-c2ccc(-c3cn(CCCC(N)=O)nc3C(F)(F)F)c(F)c2F)cnc1C(=O)Nc1ccc(C(=O)N2CCN(C(=O)C3CC[N+](C)(C)CC3)CC2)c(Cl)c1` [Example F34, 5-[4-[1-(4-amino-4-oxo-butyl)-3-(trifluoro-methyl)pyrazol-4-yl]-2,3-difluoro-phenyl]-N-[3-chloro-4-[4-(1,1-dimethylpiperidin-1-ium-4-carbonyl)piperazine-1-carbonyl]phenyl]-1-methyl-imidazole-2-carboxamide; formate], for which the IC90 amounted to 230 nM.
`COCCn1ncc(-c2ccc(-c3cnc(C(=O)Nc4ccc(C(=O)N5CCN(C(=O)C6(OC)CC[N+](C)(C)CC6)CC5)c(Cl)c4)n3C)c(F)c2F)c1C` [Example A13, N-[3-chloro-4-[4-(4-methoxy-1,1-dimethyl-piperidin-1-ium-4-carbonyl)piperazine-1-carbonyl]phenyl]-5-[2,3-difluoro-4-[1-(2-methoxyethyl)-5-methyl-pyrazol-4-yl]phenyl]-1-methyl-imidazole-2-carboxamide; formate]: the IC90 was found to be 110 nM.
Same read-out and setting: with `COCCCn1cc(-c2ccc(-c3cnc(C(=O)Nc4ccc(C(=O)N5CCN(C(=O)[C@@H]6COCC[N+]6(C)C)CC5)c(Cl)c4)n3C)c(F)c2F)c(C)n1` [Example D13, N-[3-chloro-4-[4-[(3S)-4,4-dimethylmorpholin-4-ium-3-carbonyl]piperazine-1-carbonyl]phenyl]-5-[2,3-difluoro-4-[1-(3-methoxypropyl)-3-methyl-pyrazol-4-yl]phenyl]-1-methyl-imidazole-2-carboxamide; formate] the figure was 340 nM; with `Cc1nn(CC(=O)NC(C)(C)C)cc1-c1ccc(-c2cnc(C(=O)Nc3ccc(C(=O)N4CCN(C(=O)C5CC[N+](C)(C)CC5)CC4)c(Cl)c3)n2C)c(F)c1F` [Example G2, 5-[4-[1-[2-(tert-butylamino)-2-oxo-ethyl]-3-methyl-pyrazol-4-yl]-2,3-difluoro-phenyl]-N-[3-chloro-4-[4-(1,1-dimethylpiperidin-1-ium-4-carbonyl)piperazine-1-carbonyl]phenyl]-1-methyl-imidazole-2-carboxamide; formate], 320 nM.
As to `Cc1nn(CC(=O)NC2CCCOC2)cc1-c1ccc(-c2cnc(C(=O)Nc3ccc(C(=O)N4CCN(C(=O)C5CC[N+](C)(C)CC5)CC4)c(Cl)c3)n2C)c(F)c1F` (stereo not drawn) [Example G22, N-[3-chloro-4-[4-(1,1-dimethylpiperidin-1-ium-4-carbonyl)piperazine-1-carbonyl]phenyl]-5-[2,3-difluoro-4-[3-methyl-1-[2-oxo-2-(tetrahydropyran-3-ylamino)ethyl]pyrazol-4-yl]phenyl]-1-methyl-imidazole-2-carboxamide; formate], the IC90 was 670 nM.
On the same count and under the same terms, then `Cc1nn(CC(=O)Nc2ccc(F)nn2)cc1-c1ccc(-c2cnc(C(=O)Nc3ccc(C(=O)N4CCN(C(=O)C5CC[N+](C)(C)CC5)CC4)c(Cl)c3)n2C)cc1` [Example L1, N-[3-chloro-4-[4-(1,1-dimethylpiperidin-1-ium-4-carbonyl)piperazine-1-carbonyl]phenyl]-5-[4-[1-[2-[(6-fluoropyridazin-3-yl)amino]-2-oxo-ethyl]-3-methyl-pyrazol-4-yl]phenyl]-1-methyl-imidazole-2-carboxamide; formate], with 206 nM; and `COCCn1ncc(-c2ccc(-c3cnc(C(=O)Nc4ccc(C(=O)N5CCN(C(=O)C6CCNCC6O)CC5)c(Cl)c4)n3C)c(F)c2F)c1C` (stereo not drawn) [Example D25, N-[3-chloro-4-[4-(3-hydroxypiperidine-4-carbonyl)piperazine-1-carbonyl]phenyl]-5-[2,3-difluoro-4-[1-(2-methoxyethyl)-5-methyl-pyrazol-4-yl]phenyl]-1-methyl-imidazole-2-carboxamide; formic acid], with 51 nM; and `COCCn1ncc(-c2ccc(-c3cnc(C(=O)Nc4ccc(C(=O)N5CCN(C(=O)[C@@H]6C[C@@H](O)C[N+]6(C)C)CC5)c(C)c4)n3C)c(F)c2F)c1C` [Example F14, 5-[2,3-difluoro-4-[1-(2-methoxyethyl)-5-methyl-pyrazol-4-yl]phenyl]-N-[4-[4-[(2S,4R)-4-hydroxy-1,1-dimethyl-pyrrolidin-1-ium-2-carbonyl]piperazine-1-carbonyl]-3-methyl-phenyl]-1-methyl-imidazole-2-carboxamide; 2,2,2-trifluoroacetate], with 100 nM.
Same read-out and setting: then `COCCCn1cc(-c2ccc(-c3cnc(C(=O)Nc4ccc(C(=O)N5CCN(C(=O)C6CC[N+](C)(C)CC6)CC5)c(Cl)c4)n3C)c(F)c2F)c(C(F)(F)F)n1` [Example F38, N-[3-chloro-4-[4-(1,1-dimethylpiperidin-1-ium-4-carbonyl)piperazine-1-carbonyl]phenyl]-5-[2,3-difluoro-4-[1-(3-methoxypropyl)-3-(trifluoromethyl)pyrazol-4-yl]phenyl]-1-methyl-imidazole-2-carboxamide; formate], with 760 nM.
Consider `COCCn1cc(-c2ccc(-c3cnc(C(=O)Nc4ccc(C(=O)N5CCN(C(=O)C[N+]6(C)CCC(N)C6)CC5)c(Cl)c4)n3C)c(F)c2F)c(C)n1` (stereo not drawn) [Example C3, N-[4-[4-[2-(3-amino-1-methyl-pyrrolidin-1-ium-1-yl)acetyl]piperazine-1-carbonyl]-3-chloro-phenyl]-5-[2,3-difluoro-4-[1-(2-methoxyethyl)-3-methyl-pyrazol-4-yl]phenyl]-1-methyl-imidazole-2-carboxamide; formic acid; formate], for which the IC90 is 100 nM.
Same read-out and setting: with `COCCn1nc(C)c(-c2ccc(-c3cnc(C(=O)Nc4ccc(C(=O)N5CCN(C(=O)C6CC[N+](C)(C)CC6)CC5)c(Cl)c4)n3C)c(F)n2)c1C` [Example F67, N-[3-chloro-4-[4-(1,1-dimethylpiperidin-1-ium-4-carbonyl)piperazine-1-carbonyl]phenyl]-5-[2-fluoro-6-[1-(2-methoxyethyl)-3,5-dimethyl-pyrazol-4-yl]-3-pyridyl]-1-methyl-imidazole-2-carboxamide; formate] the figure was 1100 nM; with `Cn1c(-c2ccc(-c3cn(CCOC(F)F)nc3C(F)(F)F)c(F)c2F)cnc1C(=O)Nc1ccc(C(=O)N2CCN(C(=O)C3CCNCC3)CC2)c(Cl)c1` [Example E6, N-[3-chloro-4-[4-(piperidine-4-carbonyl)piperazine-1-carbonyl]phenyl]-5-[4-[1-[2-(difluoromethoxy)ethyl]-3-(trifluoromethyl)pyrazol-4-yl]-2,3-difluoro-phenyl]-1-methyl-imidazole-2-carboxamide; formic acid], 950 nM; with `Cc1nn(CC(=O)NC(C)C)cc1-c1ccc(-c2cnc(C(=O)Nc3ccc(C(=O)N4CCN(C(=O)C5CC[N+](C)(C)CC5)CC4)c(Cl)c3)n2C)c(F)c1F` [Example G1, N-[3-chloro-4-[4-(1,1-dimethylpiperidin-1-ium-4-carbonyl)piperazine-1-carbonyl]phenyl]-5-[2,3-difluoro-4-[1-[2-(isopropylamino)-2-oxo-ethyl]-3-methyl-pyrazol-4-yl]phenyl]-1-methyl-imidazole-2-carboxamide; formate], 290 nM.
Turning to `Cn1c(-c2ccc(-c3cn[nH]c3)nc2F)cnc1C(=O)Nc1ccc(C(=O)N2CCN(C(=O)C3CCNCC3)CC2)c(Cl)c1` [Example E18, N-[3-chloro-4-[4-(piperidine-4-carbonyl)piperazine-1-carbonyl]phenyl]-5-[2-fluoro-6-(1H-pyrazol-4-yl)-3-pyridyl]-1-methyl-imidazole-2-carboxamide], the IC90 is 820 nM.
On the same count and under the same terms, with `Cc1nn(CCNS(=O)(=O)c2ccc(F)cc2)cc1-c1ccc(-c2cnc(C(=O)Nc3ccc(C(=O)N4CCN(C(=O)C5CC[N+](C)(C)CC5)CC4)c(Cl)c3)n2C)c(F)c1F` [Example H3, N-[3-chloro-4-[4-(1,1-dimethylpiperidin-1-ium-4-carbonyl)piperazine-1-carbonyl]phenyl]-5-[2,3-difluoro-4-[1-[2-[(4-fluorophenyl)sulfonylamino]ethyl]-3-methyl-pyrazol-4-yl]phenyl]-1-methyl-imidazole-2-carboxamide; formate] the figure was 180 nM.

Still in this test, the particulars now being: Acinetobacter baumannii, ATCC17961, 16 h, read-out: ATCC 17961 IC90.
Take `Cc1c(-c2cnc(C(=O)Nc3ccc(C(=O)N4CCN(C(=O)CCC[N+](C)(CCCN)CC(=O)O)CC4)c(Cl)c3)n2C)ccc(-c2cnn(CCOC(F)F)c2C)c1F` (stereo not drawn) [Example N3, 3-aminopropyl-(carboxymethyl)-[4-[4-[2-chloro-4-[[5-[4-[1-[2-(difluoromethoxy)ethyl]-5-methyl-pyrazol-4-yl]-3-fluoro-2-methyl-phenyl]-1-methyl-imidazole-2-carbonyl]amino]benzoyl]piperazin-1-yl]-4-oxo-butyl]-methyl-ammonium; formate]: the IC90 stood at 352 nM.
For `Cc1nn(CC(=O)Nc2ccc(N3CCOCC3)nn2)cc1-c1ccc(-c2cnc(C(=O)Nc3ccc(C(=O)N4CCN(C(=O)C5CC[N+](C)(C)CC5)CC4)c(Cl)c3)n2C)c(F)c1F` [Example L5, N-[3-chloro-4-[4-(1,1-dimethylpiperidin-1-ium-4-carbonyl)piperazine-1-carbonyl]phenyl]-5-[2,3-difluoro-4-[3-methyl-1-[2-[(6-morpholinopyridazin-3-yl)amino]-2-oxo-ethyl]pyrazol-4-yl]phenyl]-1-methyl-imidazole-2-carboxamide; formate], the 90% effect concentration (IC90) is 374 nM.
